Test system: T18A TCR
Assay: Surface plasmon resonance (SPR) binding of T18A TCR to peptide/HLA-B*81:01 complexes
Settings: result in words
Description: The SPR assays were performed as described earlier ([40]–[42]). Briefly, the protein was buffer -exchanged into PBS and biotinylated for 1h at room temperature. […] The Kd was determined by the fitting of a single-ligand binding model.

Row | Substance | recognition of TL9 escape variant presented by HLA-B*81:01 by T18A TCR
1 | TPsDLNTML [TL9 escape variant, Ser at position 3, presented by HLA-B*81:01] | could recognize
2 | TPQDLNsML [TL9 escape variant, Ser at position 7, presented by HLA-B*81:01] | could recognize
